{"source": "patent US20120263802A1", "about": "(priority 2003, published 2012)", "origin": "cited, not measured here", "key": {"range of models": {"tested_on": "range of models", "settings": "once-daily oral administration; Wedge et al, Proc. Am. Assoc. Canc. Res. 2001; 42: abstract 3126"}}}
{"smiles": "COc1cc2c(Nc3ccc(Br)cc3F)ncnc2cc1OCC1CCN(C)CC1", "note": "[ZD6474, 4-(4-bromo-2-fluoroanilino)-6-methoxy-7-(1-methylpiperidin-4-ylmethoxy)quinazoline]", "values": [{"measurement": "anti-tumour activity", "setting": "range of models", "result": "broad-spectrum anti-tumour activity"}, {"measurement": "inhibition of VEGF RTK", "setting": "VEGF RTK", "result": "potent inhibitor"}]}
